We go through 10 molecules from PMC3814572, “Identification of Novel Compounds Inhibiting Chikungunya Virus-Induced Cell Death by High Throughput Screening of a Kinase Inhibitor Library” (PLoS Neglected Tropical Diseases, 2013).

Series [1] deals with CHIKV-118-GFP. Description: Resazurin reduction assay, dose-response of inhibition of CHIKV-associated cell death in HuH-7. The following applies: for EC50: Chikungunya virus, Huh-7, 72 h; for SI (CC50/EC50): minimum SI based on the highest concentration of compound tested.
The nature of the next series: in vitro. The following applies: human.
Series [2] relates to HuH-7 cells. The note with it: human.
Series [3] concerns CHIKV-118-GFP. Description: Image-based high-content assay of CHIKV-118-GFP infectivity in HuH-7. Format: cell-based, Chikungunya virus. The following applies: for percentage of infected cells / inhibition at 20 µM / inhibition at 50 µM: 24 hrs; for observed apoptotic blebs associated with CHIKV infection: 24 hpi; for inhibition at 20 µM / inhibition at 50 µM: Chikungunya virus, read-out: inhibition of CHIKV-118-GFP infection.

A short description of series [4]: Resazurin reduction assay, toxicity in MOCK-infected (non-infected) HuH-7. The following applies: human. A general note: Alamar Blue is a resazurin reagent that responds to reducing activity.
In series [5] the test system is CHIKV-118-GFP. Nature of the series: Virus yield reduction assay (plaque assay of culture medium). The following applies: 24 hrs, culture supernatant of HuH-7.
The test system of series [6] is CHIKV-118-GFP. Nature of the series: Microneutralization assay (protection against CHIKV-induced CPE). The note with it: 50 pfu CHIKV-118-GFP, 72 hrs, HuH-7.
The test system of a further series is Huh-7.5 cells. The following applies: 10 µM, Huh-7.5, 72 hrs; cited from earlier work.
A further series has as its system DENV2 (BR DEN2 01-01). The note with it: 10 µM, Huh-7.5, 72 hrs; cited from earlier work.
For series [7], the system named is HuH-7 cells. Description: Cell number by DAPI-stained nuclei imaging in HuH-7. The following applies: 50 µM.
For series [8], the system named is HuH-7 cells. Nature of the series: Resazurin reduction assay, toxicity in MOCK-infected (non-infected) HuH-7. The note with it: HuH-7.
[9] abbreviates: read-out: EC50 (concentration showing 50% inhibition relative to the maximum inhibition achieved).

Like-named read-outs stand apart in the source and are kept apart here.

For `CO/C1=C\C(C)=C\[C@@H](C)[C@@H](O)[C@@H](C)C/C(C)=C/C=C/[C@H](OC)[C@@H]([C@@H](C)[C@@H](O)[C@H](C)[C@@]2(O)C[C@@H](O)[C@H](C)[C@@H](C(C)C)O2)OC1=O` [BAF, Bafilomycin A1], the EC50 with CHIKV-118-GFP [1] was determined as 0.056 µM. The values for the CC50 in the series “in vitro” and in the series with HuH-7 cells [2] were 0.09 µM and 0.237 µM, respectively.

On to `COc1ccc(-c2ccc(C(=O)NC(C)C)c3occc23)c(C)c1` [CND0335], for which the EC50 in the series with CHIKV-118-GFP [1] (setting [9]) was 3.3 µM. Moreover, the “SI (CC50/EC50)” value with CHIKV-118-GFP [1] was greater than 15. Also, the “percentage of infected cells” value with CHIKV-118-GFP [3] (20 µM) turned out to be 90.9%. Besides, in [4], the CC50 at 72 h was greater than 50 µM.

Regarding `COc1ccc(-c2ccc(C(=O)Nc3ccc(C(C)C)cc3)c3occc23)c(C)c1` [CND0364], the EC50 with CHIKV-118-GFP [1] (setting [9]) was 6.2 µM. Moreover, the “SI (CC50/EC50)” value in the series on CHIKV-118-GFP [1] is given as greater than 8.1. Moreover, the “log titer reduction vs DMSO vehicle control” value (“log titer reduction” below) in the series on CHIKV-118-GFP [5] (20 µM) is 1.69 log. Further, the “lowest concentration that inhibited CHIKV-induced CPE (clearing of cell monolayer)” value with CHIKV-118-GFP [6] was 12.5 µM. In the series on CHIKV-118-GFP [3] (20 µM), the “percentage of infected cells” value came out at 80.3% and the inhibition (as a rule, the change of the read-out against control, counted positive when it falls) at 20 µM was determined as 19.7%. In addition, in the series on CHIKV-118-GFP [3], the “observed apoptotic blebs associated with CHIKV infection” value (shortened to “observed apoptotic blebs associated”) was “significantly lower”. In addition, the CC50 at 72 h in series [4] was greater than 50 µM.

Regarding `COc1ccc(-c2coc3c(C(=O)Nc4cccnc4)cccc23)c(C)c1` [CND0366], the EC50 in the series with CHIKV-118-GFP [1] (setting [9]) amounted to 7.1 µM. In addition, the “SI (CC50/EC50)” value with CHIKV-118-GFP [1] is on record as greater than 7.0. The “percentage of infected cells” value in the series on CHIKV-118-GFP [3] (20 µM) was 94.4%. This molecule displayed a CC50 at 72 h in series [4] greater than 50 µM.

`COc1ccc(-c2coc3c(C(=O)NC(C)C)cccc23)c(C)c1` [CND0415]: the EC50 with CHIKV-118-GFP [1] (setting [9]) is 6.2 µM. Also, the “SI (CC50/EC50)” value with CHIKV-118-GFP [1] is greater than 8.1. Also, the “percentage of infected cells” value in the series with CHIKV-118-GFP [3] (20 µM) is 96.4%. Besides, in series [4], the CC50 at 72 h is greater than 50 µM.

With `COc1cccc(Nc2cc3c(cn2)cc(-c2cccc(C(F)(F)F)c2)n3C)c1` [CND0545], the EC50 with CHIKV-118-GFP [1] (setting [9]) was determined as 5.6 µM. Besides, the “SI (CC50/EC50)” value in the series on CHIKV-118-GFP [1] was greater than 8.9. For the same molecule, the “log titer reduction” value in the series with CHIKV-118-GFP [5] (20 µM) amounted to 2.01 log. In the series with CHIKV-118-GFP [6], the “lowest concentration that inhibited CHIKV-induced CPE (clearing of cell monolayer)” value was 25 µM. Also, in the series on CHIKV-118-GFP [3] (20 µM), the “percentage of infected cells” value was 71.7% and the inhibition at 20 µM was 28.3%. The “observed apoptotic blebs associated” value in the series on CHIKV-118-GFP [3] is recorded as “significantly lower”. Also, in [4], the CC50 at 72 h was greater than 50 µM.

In the case of `CC(C)c1ccc(NC(=O)c2csc(C(O)C(C)C)n2)cc1` (stereo not drawn) [CND3514], the EC50 in the series on CHIKV-118-GFP [1] (setting [9]) was 2.2 µM. Moreover, in the series on CHIKV-118-GFP [1], the “SI (CC50/EC50)” value is reported as greater than 22.7. Further, the “toxicity in DENV2 screening (cell number)” value with Huh-7.5 cells is reported as 39.37%. Besides, the “percentage of infected cells” value with CHIKV-118-GFP [3] (20 µM) came to 92.2%. This molecule also gave a CC50 at 72 h in series [4] greater than 50 µM. Also, in the series on DENV2 (BR DEN2 01-01), the “inhibition against DENV2” value is given as 67.87%.

With `CN(C)CCCN1c2ccccc2Sc2ccc(Cl)cc21` [CPZ, Chlorpromazine], the “reduction of cell number” value is listed as 86% in the series on HuH-7 cells [7] (24 hrs), greater than 99.9% with HuH-7 cells [7] (48 hrs), greater than 99.9% with HuH-7 cells [7] (72 hrs) and greater than 99.9% in the series with HuH-7 cells [7] (96 hrs). For the same molecule, in the series with HuH-7 cells [8] (50 µM, 72 hpi), the “fluorescence readout after resazurin treatment” value was 240,842±14,730 RFU.

Consider `CCN(CC)CCCC(C)Nc1ccnc2cc(Cl)ccc12` (stereo not drawn) [CQ, Chloroquine, reference compound], for which, in the series on CHIKV-118-GFP [1], the EC50 came out at 29 µM. For the same molecule, in the series on CHIKV-118-GFP [5] (50 µM), the “log titer reduction” value was determined as 1.88 log. In the series on CHIKV-118-GFP [3] (50 µM), the “percentage of infected cells” value was found to be 24.4% and the inhibition at 50 µM was found to be 75.6%. In addition, in the series on CHIKV-118-GFP [3], the “observed apoptotic blebs associated” value is reported as “still prominent”. For the same molecule, the CC50 at 72 h in series [4] turned out to be 90 µM.

Regarding `COc1c(C)c2c(c(O)c1C/C=C(\C)CCC(=O)O)C(=O)OC2` [MPA, Mycophenolic acid, reference compound], the EC50 in the series with CHIKV-118-GFP [1] amounted to 1.6 µM. Further, in the series with CHIKV-118-GFP [3] (50 µM), the “percentage of infected cells” value worked out at 7.34% and the inhibition at 50 µM was greater than 92%. In addition, the “observed apoptotic blebs associated” value in the series with CHIKV-118-GFP [3] is given as “significantly lower”. Moreover, the CC50 at 72 h in series [4] is greater than 100 µM. In addition, the “cytotoxicity at the highest concentration tested” value in the series on HuH-7 cells [8] (100 µM) is reported as “no observable cytotoxicity”.
